Measurements taken from patent publication US20140256687A1, “Agricultural and Horticultural Insecticide Composition and Method for Using the Same” (priority 2011, published 2014).

Key:
Chilo suppressalis = assay: Control effect on Chilo suppressalis (potted rice spray test); format: in vivo; details: spray 400 L/ha, g a.i./ha: flubendiamide 30, dichlorvos 393, profenofos 500; for Percentage of control (%): control effect by formula 2; for Percentage of control (%) / Percentage of damaged stems (%): 29 days after treatment; for Number of stems at 29 days after treatment, Damaged stems / Number of stems at 29 days after treatment, Normal stems: rice (Kinmaze) in pots, 60 larvae per pot
Procedure: Rice plants (variety: Kinmaze) were planted in 2-L pots and grown to a height of about 80 cm (about 82 days after transplantation, 18 to 25 sheaths). The depth of paddy water in each pot was adjusted to 4 cm and then spray treatment to the rice plants was conducted with an agrochemical solution diluted to a predetermined concentration in an amount equivalent to 400 L/ha. After the spray-treated plants were air-dried, each pot was covered with a vinyl chloride cylindrical cover 30 cm in height. At 1 day before the treatment and at 5 and 12 days after the treatment, 20 larvae of the test insect pest Chilo suppressalis were released into each of the covered pots (60 larvae in total per pot). At 29 days after the treatment, in each pot, the number of damaged stems of the rice plants was counted, the percentage of damaged stems was calculated, and from this percentage, the control effect was calculated according to formula 2. In addition, the expected value was calculated according to Colby's equation in the same manner as in Test Example 1.
Control effect (%)=100−(the percentage of damaged stems in a treatment plot/the percentage of damaged stems in a non-treatment plot)×100 <Formula 2>

Plutella xylostella = assay: Control effect on Plutella xylostella (cabbage, greenhouse spray test); format: in vivo; details: spray 800 L/ha, g a.i./ha: flubendiamide 60, dichlorvos 400, profenofos 320; for Number of surviving larvae 2 days after treatment / Number of surviving larvae 6 days after treatment: 3rd-instar larvae on Brassica oleracea var. capitata, three plants per plot; for Control effect (%) 2 days after treatment / Control effect (%) 6 days after treatment: formula 1

Row | Compound | Percentage of control (%) (Chilo suppressalis) | Number of stems at 29 days after treatment, Damaged stems (Chilo suppressalis) | Number of stems at 29 days after treatment, Normal stems (Chilo suppressalis) | Percentage of damaged stems (%) (Chilo suppressalis) | Number of surviving larvae 2 days after treatment (Plutella xylostella) | Number of surviving larvae 6 days after treatment (Plutella xylostella) | Control effect (%) 2 days after treatment (Plutella xylostella) | Control effect (%) 6 days after treatment (Plutella xylostella)
1 | COP(=O)(OC)OC=C(Cl)Cl [Dichlorvos, 2,2-dichlorovinyl dimethyl phosphate] | 7.5% | 38 | 7 | 84.4% | 188 | 212 | 16% | 0%
2 | Cc1cc(C(F)(C(F)(F)F)C(F)(F)F)ccc1NC(=O)c1cccc(I)c1C(=O)NC(C)(C)CS(C)(=O)=O [Flubendiamide, 3-iodo-W-(2-mesyl-1,1-dimethylethyl)-N-{4-[1,2,2,2-tetrafluoro-1-(trifluoromethyl)ethyl]-o-tolyl}phthalamide] | 54.0% | 21 | 29 | 42.0% | 307 | 56 | 39% | 88%
3 | CCCSP(=O)(OCC)Oc1ccc(Br)cc1Cl (stereo not drawn) [Profenofos, O-4-bromo-2-chlorophenyl O-ethyl S-propyl phosphorothioate] | 27.7% | 35 | 18 | 66.0% | 121 | 44 | 48% | 80%
